# Peptide text beside a SMILES is read from it.
# Assays:
# CaCo-2 monolayer = assay: TEER assay, CaCo-2 monolayer cocultured with P. aeruginosa; type: cell-based, human; conditions: P. aeruginosa coculture, 6 h, n = 3
# M. luteus = assay: Intracellular infection assay; type: cell-based, M. luteus in A549 cells; conditions: A549 cells expressing dTAG–PPP1CB pre-incubated 1 h with dTAG^V-1
# S. typhimurium = assay: Intracellular infection assay; type: cell-based, S. typhimurium SL1344 in A549 cells; conditions: A549 cells expressing dTAG–PPP1CB pre-incubated 1 h with dTAG^V-1
# S. enterica = assay: Bacterial growth in conditioned medium; type: cell-based, Salmonella enterica
smiles,measurement,setting,value
CC[C@H](C)[C@H](NC(=O)[C@H](CC(N)=O)NC(=O)[C@H](Cc1ccccc1)NC(=O)[C@H](CCCNC(=N)N)NC(=O)[C@H](CCCNC(=N)N)NC(=O)[C@@H](N)CCCCN)C(=O)N[C@@H](CCCCN)C(=O)N[C@@H](CC(C)C)C(=O)N[C@@H](Cc1c[nH]c2ccccc12)C(=O)N[C@@H](CCCCN)C(=O)N[C@H](C(=O)N[C@@H](Cc1ccccc1)C(=O)O)[C@@H](C)O [PPP1CB] (H-KRRFNIKLWKTF-OH),disruption of CaCo-2 barrier integrity by P. aeruginosa (TEER barrier index),CaCo-2 monolayer,fully abolished
CC[C@H](C(=O)N1CCCC[C@H]1C(=O)O[C@H](CCc1ccc(OC)c(OC)c1)c1ccccc1OCC(=O)NCCCCCCC(=O)N[C@H](C(=O)N1C[C@H](O)C[C@H]1C(=O)N[C@@H](C)c1ccc(-c2scnc2C)cc1)C(C)(C)C)c1cc(OC)c(OC)c(OC)c1 [dTAG^V-1],intracellular bacterial infection (CFU counts),M. luteus,attenuated intracellular bacterial infection significantly
same,"intracellular bacterial infection (CFU counts, imaging)",S. typhimurium,attenuated intracellular bacterial infection significantly
same,reduction of bacterial growth in conditioned medium,"S. enterica; A549 cells expressing dTAG–PPP1CB, 500 nM dTAG^V-1 for 6 h vs DMSO",20%
CC(=O)N[C@@H](CC(C)C)C(=O)N[C@@H](CC(C)C)C(=O)N[C@H](C=O)CCCNC(=N)N [leupeptin],bacterial growth in conditioned medium,S. enterica; medium from cells treated with leupeptin 20 µM for 6 h,increase in bacterial growth

# Reference: paper PMC11946893 (Nature, 2025)
